test system: endogenous cellular STAT1 (phosphorylated at Tyr701) in NCI-H1373 cells; experiment: Phospho-STAT1 (Tyr701) LANCE Ultra TR-FRET Detection Assay; format: cell-based; settings: Homo sapiens, NCI-H1373, 48 h, phospho-STAT1 (Tyr701) induction, read-out: NH1373 pSTAT1 EC50

**Q.** `C[C@@H](CCCn1ccc2cc(-c3ncc(N)cn3)c(F)cc2c1=O)Nc1cn[nH]c(=O)c1C(F)(F)F` [Example 199, (S)-6-(5-aminopyrimidin-2-yl)-7-fluoro-2-(4-((6-oxo-5-(trifluoromethyl)-1,6-dihydropyridazin-4-yl)amino)pentyl)isoquinolin-1(2H)-one] was tested. Which EC50 did it give?
**A.** 317 nM

**Q.** Which EC50 does the source give for `COc1cnc(-c2cc3ccn(CCC[C@@H]4C[C@@H](C)CN4c4cn[nH]c(=O)c4C(F)(F)F)c(=O)c3cc2F)nc1N` [Example 175, 6-(4-amino-5-methoxypyrimidin-2-yl)-7-fluoro-2-[3-[(2R,4R)-4-methyl-1-[6-oxo-5-(trifluoromethyl)-1H-pyridazin-4-yl]pyrrolidin-2-yl]propyl]isoquinolin-1-one] here?
**A.** 57.5 nM

**Q.** Which EC50 does the source give for `CNc1cnc(-c2cc3ccn(C[C@@H]4CCC[C@H](Nc5cn[nH]c(=O)c5C(F)(F)F)C4)c(=O)c3cc2F)cn1` [Example 274, 7-fluoro-6-(5-(methylamino)pyrazin-2-yl)-2-(((1R,3S)-3-((6-oxo-5-(trifluoromethyl)-1,6-dihydropyridazin-4-yl)amino)cyclohexyl)methyl)isoquinolin-1(2H)-one] here?
**A.** 78 nM

**Q.** How did the EC50 turn out when `C[C@@H](CCCn1ccc2cc(-c3nc(N4CCOCC4)c4sccc4n3)c(F)cc2c1=O)Nc1cn[nH]c(=O)c1C(F)(F)F` [Example 298, (S)-7-fluoro-6-(4-morpholinothieno[3,2-d]pyrimidin-2-yl)-2-(4-((6-oxo-5-(trifluoromethyl)-1,6-dihydropyridazin-4-yl)amino)pentyl)isoquinolin-1(2H)-one] was run?
**A.** 32 nM

**Q.** How did the EC50 turn out when `O=c1[nH]ncc(N[C@H]2CCC[C@@H](Cn3ccc4cc(-c5ccc(Cl)cn5)c(F)cc4c3=O)C2)c1C(F)(F)F` [Example 280, 6-(5-chloropyridin-2-yl)-7-fluoro-2-(((1R,3S)-3-((6-oxo-5-(trifluoromethyl)-1,6-dihydropyridazin-4-yl)amino)cyclohexyl)methyl)isoquinolin-1(2H)-one] was run?
**A.** 34.8 nM

**Q.** For `O=c1[nH]ncc(N[C@H](CCCn2ccc3cc(-c4ncc(Cl)cn4)c(F)c(F)c3c2=O)COC(F)F)c1C(F)(F)F` [Example 392, (R)-6-(5-chloropyrimidin-2-yl)-2-(5-(difluoromethoxy)-4-((6-oxo-5-(trifluoromethyl)-1,6-dihydropyridazin-4-yl)amino)pentyl)-7,8-difluoroisoquinolin-1(2H)-one], which EC50 is on record?
**A.** 1.5 nM

**Q.** For `Nc1nc(-c2cc3ncn(CCC[C@@H](Nc4cn[nH]c(=O)c4C(F)(F)F)C4CC4)c(=O)c3cc2F)ncc1Cl` [Example 461, (R)-7-(4-amino-5-chloropyrimidin-2-yl)-3-(4-cyclopropyl-4-((6-oxo-5-(trifluoromethyl)-1,6-dihydropyridazin-4-yl)amino)butyl)-6-fluoroquinazolin-4(3H)-one], which EC50 is on record?
**A.** 15.1 nM

**Q.** `Nc1nc(-c2cc3ncn(C[C@@H]4CCC[C@H](Nc5cn[nH]c(=O)c5C(F)(F)F)C4)c(=O)c3cc2F)cnc1C(F)(F)F` [Example 254, 7-(6-amino-5-(trifluoromethyl)pyrazin-2-yl)-6-fluoro-3-(((1R,3S)-3-((6-oxo-5-(trifluoromethyl)-1,6-dihydropyridazin-4-yl)amino)cyclohexyl)methyl)quinazolin-4(3H)-one] was tested. Which EC50 did it give?
**A.** 31.9 nM

**Q.** `Nc1nc(-c2cc3ccn(C[C@@H]4CCC[C@H](Nc5cn[nH]c(=O)c5C(F)(F)F)C4)c(=O)c3c(F)c2F)ncc1Cl` [Example 243, 6-(4-amino-5-chloropyrimidin-2-yl)-7,8-difluoro-2-(((1R,3S)-3-((6-oxo-5-(trifluoromethyl)-1,6-dihydropyridazin-4-yl)amino)cyclohexyl)methyl)isoquinolin-1(2H)-one] was tested. Which EC50 did it give?
**A.** 2.98 nM

**Q.** With `Nc1nc(-c2cc3ccn(CCC[C@H](CCOC(F)F)Nc4cn[nH]c(=O)c4C(F)(F)F)c(=O)c3cc2F)ncc1C(F)(F)F` [Example 467, 6-[4-amino-5-(trifluoromethyl)pyrimidin-2-yl]-2-[(4R)-6-(difluoromethoxy)-4-[[6-oxo-5-(trifluoromethyl)-1H-pyridazin-4-yl]amino]hexyl]-7-fluoro-isoquinolin-1-one] as the compound, how does the EC50 read?
**A.** 4.13 nM

**Q.** For `C[C@@H](C[C@H](O)Cn1ccc2cc(-c3ncc(C(F)(F)F)cn3)c(F)cc2c1=O)Nc1cn[nH]c(=O)c1C(F)(F)F` (single isomer, unassigned) [Example 479], which EC50 is on record?
**A.** 82.8 nM

**Q.** With `COc1cc(-c2cc3ccn(CCC[C@H](C)Nc4cn[nH]c(=O)c4C(F)(F)F)c(=O)c3cc2F)ncc1C(F)(F)F` [Example 331, (S)-7-fluoro-6-(4-methoxy-5-(trifluoromethyl)pyridin-2-yl)-2-(4-((6-oxo-5-(trifluoromethyl)-1,6-dihydropyridazin-4-yl)amino)pentyl)isoquinolin-1(2H)-one] as the compound, how does the EC50 read?
**A.** 78.1 nM

**Q.** Which EC50 does the source give for `COc1cnc(-c2cc3ccn(CCC[C@@H](Nc4cn[nH]c(=O)c4C(F)(F)F)C4CC4)c(=O)c3cc2F)nc1N` [Example 146, 6-(4-amino-5-methoxypyrimidin-2-yl)-2-[(4R)-4-cyclopropyl-4-[[6-oxo-5-(trifluoromethyl)-1H-pyridazin-4-yl]amino]butyl]-7-fluoroisoquinolin-1-one] here?
**A.** 14.5 nM

**Q.** Which EC50 does the source give for `C[C@@H](CCCn1ccc2cc(-c3ncc(-c4ccccc4F)cn3)c(F)cc2c1=O)Nc1cn[nH]c(=O)c1C(F)(F)F` [Example 336, (S)-7-fluoro-6-(5-(2-fluorophenyl)pyrimidin-2-yl)-2-(4-((6-oxo-5-(trifluoromethyl)-1,6-dihydropyridazin-4-yl)amino)pentyl)isoquinolin-1(2H)-one] here?
**A.** 95.1 nM

**Q.** How did the EC50 turn out when `[2H]C([2H])([2H])OC[C@@H](CCCn1ccc2cc(-c3ccc(C(F)(F)F)cn3)c(F)cc2c1=O)Nc1cn[nH]c(=O)c1C(F)(F)F` [Example 434] was run?
**A.** 13 nM

**Q.** Which EC50 does the source give for `CC[C@@H](CCCn1cnc2cc(-c3ncc(C(F)(F)F)c(N)n3)c(F)cc2c1=O)Nc1cn[nH]c(=O)c1C(F)(F)F` [Example 321, (S)-7-(4-amino-5-(trifluoromethyl)pyrimidin-2-yl)-6-fluoro-3-(4-((6-oxo-5-(trifluoromethyl)-1,6-dihydropyridazin-4-yl)amino)hexyl)quinazolin-4(3H)-one] here?
**A.** 4.11 nM

**Q.** How did the EC50 turn out when `C#C[C@@H](CCCn1ccc2cc(-c3ncc(C(F)(F)F)cn3)c(F)cc2c1=O)Nc1cn[nH]c(=O)c1C(F)(F)F` [Example 170, 7-fluoro-2-[(4R)-4-[[6-oxo-5-(trifluoromethyl)-1H-pyridazin-4-yl]amino]hex-5-ynyl]-6-[5-(trifluoromethyl)pyrimidin-2-yl]isoquinolin-1-one] was run?
**A.** 195 nM

**Q.** How did the EC50 turn out when `Nc1nc(-c2cc3ccn(CCC[C@@H](Nc4cn[nH]c(=O)c4C(F)(F)F)C4CC4)c(=O)c3cc2F)ncc1C(F)(F)F` [Example 144, 6-[4-amino-5-(trifluoromethyl)pyrimidin-2-yl]-2-[(4R)-4-cyclopropyl-4-[[6-oxo-5-(trifluoromethyl)-1H-pyridazin-4-yl]amino]butyl]-7-fluoro-isoquinolin-1-one] was run?
**A.** 3.55 nM

**Q.** For `COc1cnc(-c2cc3ccn(CCC[C@H](COC(F)F)Nc4cn[nH]c(=O)c4C(F)(F)F)c(=O)c3cc2F)nc1N` [Example 370, (R)-6-(4-amino-5-methoxypyrimidin-2-yl)-2-(5-(difluoromethoxy)-4-((6-oxo-5-(trifluoromethyl)-1,6-dihydropyridazin-4-yl)amino)pentyl)-7-fluoroisoquinolin-1(2H)-one], which EC50 is on record?
**A.** 8.33 nM

**Q.** `Nc1nc(-c2cc3ccn(CCC[C@H](COC(F)F)Nc4cn[nH]c(=O)c4C(F)(F)F)c(=O)c3c(F)c2F)cnc1C(F)(F)F` [Example 418, (R)-6-(6-amino-5-(trifluoromethyl)pyrazin-2-yl)-2-(5-(difluoromethoxy)-4-((6-oxo-5-(trifluoromethyl)-1,6-dihydropyridazin-4-yl)amino)pentyl)-7,8-difluoroisoquinolin-1(2H)-one] was tested. Which EC50 did it give?
**A.** 4.58 nM

**Q.** `Nc1nc(-c2cc3ccn(CCC[C@H](COC(F)F)Nc4cn[nH]c(=O)c4C(F)(F)F)c(=O)c3cc2F)n[nH]1` [Example 421, (R)-6-(5-amino-1H-1,2,4-triazol-3-yl)-2-(5-(difluoromethoxy)-4-((6-oxo-5-(trifluoromethyl)-1,6-dihydropyridazin-4-yl)amino)pentyl)-7-fluoroisoquinolin-1(2H)-one] was tested. Which EC50 did it give?
**A.** 110 nM

**Q.** Which EC50 does the source give for `COc1cnc(-c2cc3ccn(CCC[C@H](C)Nc4cn[nH]c(=O)c4C(F)(F)F)c(=O)c3cc2F)nc1NCC(F)F` [Example 158, 6-[4-(2,2-difluoroethylamino)-5-methoxy-pyrimidin-2-yl]-7-fluoro-2-[(4S)-4-[[6-oxo-5-(trifluoromethyl)-1H-pyridazin-4-yl]amino]pentyl]isoquinolin-1-one] here?
**A.** 109 nM

**Q.** With `CC#C[C@@H](CCCn1ccc2cc(-c3ncc(C(F)(F)F)cn3)c(F)c(F)c2c1=O)Nc1cn[nH]c(=O)c1C(F)(F)F` [Example 161, 7,8-difluoro-2-[(4R)-4-[[6-oxo-5-(trifluoromethyl)-1H-pyridazin-4-yl]amino]hept-5-ynyl]-6-[5-(trifluoromethyl)pyrimidin-2-yl]isoquinolin-1-one] as the compound, how does the EC50 read?
**A.** 28.7 nM

**Q.** Which EC50 does the source give for `O=c1[nH]ncc(N[C@H](CCCn2cnc3cc(-c4ccc(C(F)F)cn4)c(F)cc3c2=O)COC(F)F)c1C(F)(F)F` [Example 402, (R)-3-(5-(difluoromethoxy)-4-((6-oxo-5-(trifluoromethyl)-1,6-dihydropyridazin-4-yl)amino)pentyl)-7-(5-(difluoromethyl)pyridin-2-yl)-6-fluoroquinazolin-4(3H)-one] here?
**A.** 3.13 nM

**Q.** Which EC50 does the source give for `N#C[C@@H](CCCn1ccc2cc(-c3ncc(C(F)(F)F)cn3)c(F)cc2c1=O)Nc1cn[nH]c(=O)c1C(F)(F)F` [Example 162, (2R)-5-[7-fluoro-1-oxo-6-[5-(trifluoromethyl)pyrimidin-2-yl]-2-isoquinolyl]-2-[[6-oxo-5-(trifluoromethyl)-1H-pyridazin-4-yl]amino]pentanenitrile] here?
**A.** 662 nM

**Q.** Which EC50 does the source give for `COc1cnc(-c2cc3ccn(CCC[C@H](C)Nc4cn[nH]c(=O)c4C(F)(F)F)c(=O)c3cc2F)nc1NC1(C(F)F)CC1` [Example 219, (S)-6-(4-((1-(difluoromethyl)cyclopropyl)amino)-5-methoxypyrimidin-2-yl)-7-fluoro-2-(4-((6-oxo-5-(trifluoromethyl)-1,6-dihydropyridazin-4-yl)amino)pentyl)isoquinolin-1(2H)-one] here?
**A.** 430 nM

— US12459922B2 (Gilead Sciences, Inc., priority 2022, dated 2025)
